Numbers after ± are expanded uncertainties.
Conditions: Liquid, Closed cell (Static) method

vapor or sublimation pressure (353.15 K) [kPa] | vapor or sublimation pressure (363.15 K) [kPa] | Structure (SMILES)
47.33 ± 4.8 | 70.07 ± 7 | O [water]
20.74 ± 2.2 | 30.23 ± 3.1 | CCOC(=O)OCC [diethyl carbonate]
108.14 ± 11 | 156.04 ± 16 | CCO [ethanol]

Reference: the NIST ThermoML archive (doi:10.1016/j.fluid.2012.11.026)
